Assays:
Experiment in all cases: relative viability (nuclei count vs DMSO), 5 days (fraction); higher = more cells survive
Vismodegib + Lapatinib = compound: CS(=O)(=O)c1ccc(C(=O)Nc2ccc(Cl)c(-c3ccccn3)c2)c(Cl)c1 [Vismodegib] + CS(=O)(=O)CCNCc1ccc(-c2ccc3ncnc(Nc4ccc(OCc5cccc(F)c5)c(Cl)c4)c3c2)o1 [Lapatinib] (partner 2 µM)
In short: (§1)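 Relative viability divides the nuclei count in treated wells by that in vehicle wells. Lung cancer cell lines were seeded in 1536-well plates, dosed by pin tool the next day, and fixed and stained after 5 days in one step with final 0.05% Triton X-100, 1% formaldehyde and 1 ug/ml Hoechst. Dosing was a single drug or a fixed anchor-drug dose plus five library-drug doses (not always all listed) in √10 steps, and values are medians of duplicate plates imaged at 4×.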

VE-821 + Crizotinib = compound: CS(=O)(=O)c1ccc(-c2cnc(N)c(C(=O)Nc3ccccc3)n2)cc1 [VE-821] + C[C@@H](Oc1cc(-c2cnn(C3CCNCC3)c2)cnc1N)c1c(Cl)ccc(F)c1Cl [Crizotinib] (partner 1 µM)
In short: as §1

Ruxolitinib + Linsitinib = compound: N#CC[C@H](C1CCCC1)n1cc(-c2ncnc3[nH]ccc23)cn1 [Ruxolitinib] + C[C@]1(O)C[C@@H](c2nc(-c3ccc4ccc(-c5ccccc5)nc4c3)c3c(N)nccn32)C1 [Linsitinib] (partner 1 µM)
In short: as §1

Ruxolitinib + Tozasertib = compound: N#CC[C@H](C1CCCC1)n1cc(-c2ncnc3[nH]ccc23)cn1 [Ruxolitinib] + Cc1cc(Nc2cc(N3CCN(C)CC3)nc(Sc3ccc(NC(=O)C4CC4)cc3)n2)n[nH]1 [Tozasertib] (partner 0.1 µM)
In short: as §1

| Cell Line | relative viability (Vismodegib + Lapatinib; first compound 0.08 µM) | relative viability (Vismodegib + Lapatinib; first compound 0.253 µM) | relative viability (Vismodegib + Lapatinib; first compound 0.8 µM) | relative viability (Vismodegib + Lapatinib; first compound 2.53 µM) | relative viability (Vismodegib + Lapatinib; first compound 8 µM) | relative viability (VE-821 + Crizotinib; first compound 0.08 µM) | relative viability (VE-821 + Crizotinib; first compound 0.253 µM) | relative viability (VE-821 + Crizotinib; first compound 0.8 µM) | relative viability (VE-821 + Crizotinib; first compound 2.53 µM) | relative viability (VE-821 + Crizotinib; first compound 8 µM) | relative viability (Ruxolitinib + Linsitinib; first compound 0.08 µM) | relative viability (Ruxolitinib + Linsitinib; first compound 0.253 µM) | relative viability (Ruxolitinib + Linsitinib; first compound 0.8 µM) | relative viability (Ruxolitinib + Linsitinib; first compound 2.53 µM) | relative viability (Ruxolitinib + Linsitinib; first compound 8 µM) | relative viability (Ruxolitinib + Tozasertib; first compound 0.08 µM) | relative viability (Ruxolitinib + Tozasertib; first compound 0.253 µM) | relative viability (Ruxolitinib + Tozasertib; first compound 0.8 µM) | relative viability (Ruxolitinib + Tozasertib; first compound 2.53 µM) | relative viability (Ruxolitinib + Tozasertib; first compound 8 µM) |
| --- | --- | --- | --- | --- | --- | --- | --- | --- | --- | --- | --- | --- | --- | --- | --- | --- | --- | --- | --- | --- |
| H3255 | 0.244 | 0.24 | 0.239 | 0.268 | 0.239 | 1.05 | 0.981 | 0.761 | 1.03 | 0.847 | 0.464 | 0.887 | 1.17 | 0.706 | 0.86 | 0.612 | 0.568 | 0.841 | 0.56 | 0.682 |
| HARA | 0.858 | 0.713 | 0.662 | 0.797 | 0.634 | 1.36 | 1.07 | 1.06 | 1.07 | 0.903 | 0.983 | 1.01 | 1.03 | 0.912 | 0.815 | 0.113 | 0.111 | 0.112 | 0.107 | 0.119 |
| HCC-15 | 0.883 | 0.854 | 0.823 | 0.882 | 0.74 | 0.989 | 0.817 | 0.906 | 0.982 | 0.854 | 0.855 | 0.849 | 0.855 | 0.842 | 0.737 | 0.406 | 0.434 | 0.519 | 0.481 | 0.421 |
| HCC-44 | 0.998 | 1.02 | 0.965 | 1.04 | 0.991 | 0.846 | 0.779 | 0.847 | 1.03 | 0.923 | 0.664 | 0.739 | 0.66 | 0.51 | 0.395 | 0.953 | 1.11 | 1.15 | 0.804 | 0.761 |
| IA-LM | 0.807 | 0.639 | 0.802 | 0.691 | 0.911 | 1.04 | 0.618 | 0.875 | 1.14 | 0.616 | 0.652 | 0.662 | 0.719 | 0.518 | 0.469 |  |  |  |  |  |
| LCLC-103H |  |  |  |  |  | 1.08 | 1 | 0.998 | 1.08 | 1.1 | 1.2 | 1.24 | 1.25 | 1.04 | 1.03 | 0.492 | 0.519 | 0.595 | 0.552 | 0.501 |
| NCI-H441 |  |  |  |  |  | 1.21 | 0.791 | 0.866 | 0.927 | 0.723 | 0.508 | 0.573 | 0.512 | 0.637 | 0.286 | 0.63 | 0.629 | 0.716 | 0.625 | 0.587 |
| NCI-H522 |  |  |  |  |  |  |  |  |  |  |  |  |  |  |  | 0.576 | 0.567 | 0.602 | 0.533 | 0.524 |
| NCI-H1299 | 0.952 | 0.893 | 0.992 | 0.968 | 1 | 0.986 | 0.967 | 0.919 | 0.903 | 0.786 | 0.981 | 0.974 | 0.975 | 0.917 | 0.871 |  |  |  |  |  |
| NCI-H1395 | 1.06 | 0.899 | 0.855 | 0.927 | 1.18 |  |  |  |  |  |  | 0.998 | 1.08 | 0.945 | 1.01 | 0.768 | 0.718 | 0.86 | 0.753 | 0.78 |
| NCI-H1563 | 0.849 | 0.878 | 0.901 | 0.892 | 0.966 | 1.02 | 0.781 | 0.751 | 0.694 | 0.695 | 1.18 | 1.21 | 1.25 | 1.16 | 1.09 |  |  |  |  |  |
| NCI-H1623 |  |  |  |  |  |  |  |  |  |  |  |  |  |  |  | 0.488 | 0.485 | 0.49 | 0.49 | 0.479 |
| NCI-H1648 |  |  |  |  |  |  |  |  |  |  |  |  |  |  |  |  | 0.414 | 0.747 | 0.878 | 1.14 |
| NCI-H1650 | 0.704 | 0.767 | 0.666 | 0.806 | 0.748 | 1.03 | 1.08 | 0.896 | 0.873 | 0.478 |  |  |  |  |  |  | 0.503 | 0.386 | 0.455 | 0.357 |
| NCI-H1703 | 1.12 | 0.822 | 1.21 | 1.16 | 1.52 | 1.04 | 0.578 | 0.688 | 0.336 | 0.248 | 1.07 | 0.624 | 1.25 | 0.451 | 0.547 |  |  |  |  |  |
| NCI-H1792 | 0.851 | 0.97 | 0.872 | 0.79 | 0.878 | 0.831 | 0.99 | 0.947 | 1.01 | 0.949 | 0.495 | 0.504 | 0.488 | 0.417 | 0.499 |  |  |  |  |  |
| NCI-H1793 |  | 0.667 | 0.658 | 0.671 | 0.676 |  |  |  |  |  | 0.632 | 0.92 | 1.04 | 1.12 | 0.968 | 0.343 | 0.368 | 0.48 | 0.492 | 0.309 |
| NCI-H2170 | 0.258 | 0.271 | 0.26 | 0.307 | 0.28 | 1.29 | 1.26 | 1.11 | 0.655 | 0.776 |  |  |  |  |  | 0.804 | 0.689 | 0.768 | 0.77 | 0.6 |
| NCI-H2342 |  |  |  |  |  |  |  |  |  |  |  |  |  |  |  | 0.529 | 0.556 | 0.486 | 0.479 | 0.532 |
| SW 900 |  |  |  |  |  |  |  |  |  |  |  |  |  |  |  | 0.581 | 0.649 | 0.499 | 0.534 | 0.625 |
